From patent US8445500B2, “Pesticidal compositions” (Dow AgroSciences, LLC., priority 2007, dated 2013)

What was measured:
Assay type in all cases: in vivo
[1] = system: Yellow Fever Mosquito Aedes aegypti; assay: Insecticidal assay 4, yellow fever mosquito larvae, 96-well plate; conditions: A. aegypti first instar larvae in water; 1.5 microliters of 4 micrograms per microliter in DMSO per well; assessed after 72 hours at 22° C.
Source text: 4. Insecticidal Assay for Yellow Fever Mosquito Aedes aegypti:
Objective: To evaluate the insecticidal activity of compounds against A. aegypti larvae through contact and ingestion.
Test unit preparation: Empty, 96-well microtiter plates are loaded onto a robotic dispensing system prior to application.
Formulation and application: Compounds are formulated in dimethyl sulfoxide at 4-micrograms per microliter. A robotic system dispenses 1.5 microliters of each formulated experimental solution into each well of an empty, 96-well microtiter plate. Each treatment is replicated 3 times.
Infesting: Subsequent to application, recently hatched, mosquito larvae are suspended in water containing 0.4% mosquito diet (1:3 mix of brewers yeast to liver powder). A robotic system dispenses aliquots of this aqueous solution containing 5-8 first instar mosquitoes into each well of the treated plates.
Holding and assessment: After infestation, the plates are covered with a matching clear plastic lid. Infested plates are stacked and held in an incubator at 22° C. for 72 hours. At assessment, cells are examined by means of a dissecting microscope for insecticidal effects.

[2] = system: Beet Armyworm Spodoptera exigua; assay: Insecticidal assay 10, beet armyworm, 128 well bioassay trays; conditions: S. exigua second instar; 50 microliters of 1 milligram per milliliter stock or serial dilutions on diet per well; assessed 5 days after infestation
Method: 10. Insecticidal Assay for Beet Armyworm Spodoptera exigua:
Objective: To assess the insecticidal activity of compounds against S. exigua through contact and ingestion.
Test unit preparation: 128 well bioassay trays are prepared by injecting each well with approximately 1 milliliter of prepared lepidopteran diet. Trays are allowed to dry prior to use.
Compound formulation and application: A 1 milligram per milliliter, stock solution is prepared for each compound by adding 2 milliliters of acetone/water diluent (9:1) to a vial containing 2 milligrams of technical compound. From this stock solution, additional doses may be produced through serial dilution. Once the appropriate concentrations have been prepared, 50 microliters of each solution is applied to the surface of the diet in each of 8 wells. Upon completing application, the trays are allowed to dry.
Infestation: Once dry, each well is infested with a single second instar beet armyworm. The infested wells are sealed with self sticking, ventilated plastic covers.
Holding and assessment: After infestation and sealing, the trays are placed in a growth chamber at 25 C and 40% relative humidity. 5 days after infestation the larvae are assessed for insecticidal effects.

[3] = system: Large Milkweed Bug Oncopeltus fasciatus; assay: Insecticidal assay 6, large milkweed bug, 96-well diet plate; conditions: O. fasciatus second instar; 2 microliters of 4-microgram/microliter in DMSO per well on diet; assessed after 6 days at 29° C.
Method: 6. Insecticidal Assay for Large Milkweed Bug Oncopeltus fasciatus:
Objective: To assess the insecticidal activity of compounds against O. fasciatus through contact and ingestion.
Test unit preparation: A robotic system dispenses 100 microliters of freshly prepared artificial diet into each well of a 96-well microtiter plate. The plates are held overnight at 22° C. to allow proper cooling and drying prior to treatment and infestation.
(§1) Compound formulation and application: Compounds are formulated in dimethyl sulfoxide at 4-microgram/microliter. A robotic system automatically dispenses 2 microliters of each of the experimental compound solutions into individual wells of the prepared test units. There are 6 replicates per treatment. After application, plates are allowed to dry 5-6 hours in a fume hood. When dry, the plates are covered with a matching lid and held overnight in a sealed container prior to infestation.
Infestation: One day after application, each treated well is infested with 3-5 second instar milkweed bugs.
Holding and assessment: Once infested, the plates are covered with a clear plastic lid. The plates are then stacked and held in an incubator at 29° C. After 6 days, each well is examined by means of a dissecting microscope for insecticidal effect.

[4] = system: Tobacco Budworm Heliothis virescens; assay: Insecticidal assay 2, tobacco budworm, 96-well diet plate; conditions: H. virescens eggs and early instars; 2 microliters of 4 micrograms per microliter in DMSO per well on diet; 200 ppm piperonyl butoxide co-applied; assessed after 6 days at 29° C.
Method: 2. Insecticidal Assay for Tobacco Budworm Heliothis virescens:
Objective: To evaluate the insecticidal activity of compounds against H. virescens eggs and early instars through contact and ingestion.
Test unit preparation: A robotic system dispenses 150 microliters of freshly prepared artificial lepidopteran diet into each well of a 96-well microtiter plate. The plates are held overnight at 22° C. to allow proper cooling and drying prior to treatment and infestation.
as §1, with “4-micrograms per microliter.” for “4-microgram/microliter.”, “the” for “the experimental”, “Each treatment is replicated” for “There are”, “times. As part of the application process, a 200 ppm concentration of the commonly used synergist, piperonyl butoxide is co-applied to each well to increase the sensitivity of this assay.” for “replicates per treatment.”
Infestation: One day after application, each treated well is infested with 3-5, tobacco budworm eggs.
Holding and assessment: Once infested, the plates are covered with a clear plastic lid. The plates are stacked and held in an incubator at 29° C. […]

[5] = system: Tobacco Budworm Heliothis virescens; assay: Insecticidal assay 8, tobacco budworm, diet cups; conditions: H. virescens second instar; 250 microliters of 400 ppm and 25 ppm solutions on diet in cups; assessed 5 days after infestation
Method: 8. Insecticidal Assay for Tobacco Budworm Heliothis virescens:
Objective: To assess the insecticidal activity of compounds against H. virescens through contact and ingestion.
Test unit preparation: 8 milliliters of lepidopteran diet is dispensed into one ounce clear plastic portion cups. The diet is allowed to cool before storage or use.
Formulation and application: Eight milligrams of technical compound is dissolved in 20 milliliters of 2:1 acetone:tap water diluent to form a 400 ppm solution. An aliquot of this solution is also used to prepare a 25 parts per million concentration. 250 microliters of each solution is then pipetted onto the surface the diet in each cup. Each treatment is replicated 10 times.
Infestation: Once the treated cups have dried, a single second-instar tobacco budworm is placed on the treated diet in each cup.
Holding and assessment: Treated and infested diet cups or are capped and then held in a chamber at 25° C. and 50% relative humidity. 14-hours light:10-hours dark. 5 days after infestation the larvae are assessed for insecticidal effects.

[6] = system: Cabbage Looper Tricoplusia ni; assay: Insecticidal assay 9, cabbage looper, cabbage leaf disc dip; conditions: T. ni second instar; cabbage leaf discs dipped in 400 ppm and 25 ppm solutions; assessed 5 days after infestation
Method: 9. Insecticidal Assay for Cabbage Looper Tricoplusia ni:
Objective: To assess the insecticidal activity of compounds against T. ni through contact and ingestion.
Formulation and application: Eight milligrams of technical compound is dissolved in 20 milliliters of 2:1 acetone:tap water diluent to form a 400 ppm solution. An aliquot of this solution is also used to prepare a 25 parts per million concentration. 3.5 centimeter diameter leaf discs cut from cabbage leaves are dipped into each solution until thoroughly wet. Each treatment is replicated 10 times. After air-drying, the treated discs are placed individually into one-ounce plastic cups.
Infestation: Once the leaf discs have dried, a single second instar cabbage looper is place on the cabbage disc in each cup.
Holding and assessment: Treated and infested cups or are capped and then held in a chamber at 25° C. and 50% relative humidity, 14-hours light:10-hours dark. 5 days after infestation the larvae are assessed for insecticidal effects.

Measured: insecticidal activity

N#Cc1c(NNc2c(Cl)cc(C(F)(F)F)cc2Cl)nc(C(F)(F)F)nc1C(F)(F)F [Compound 11, 4-[N′-(2,6-dichloro-4-trifluoromethyl-phenyl)-hydrazino]-2,6-bis-trifluoromethyl-pyrimidine-5-carbonitrile]
significant insecticidal activity: all assays above
